Measurements published in the supplement of paper PMC11061612.

Legend:
[1] = tested on: SK-PN-DW (Other Solid Carcinomas); assay: Bliss excess, mean over the matrix (fraction); higher = more synergy
In short: (§1)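 After 24 hours at 37°C and 5% CO2 in 1536-well plates, cells in DMEM/F12 or RPMI plus 10% FBS received two-drug dose matrices for 72 hours. Viability came from CellTiter-Glo 2.0 luminescence and was scaled as inhibition, anchored at 0 by vehicle wells and at 1 by blank wells. Combination Emax is taken as the second-highest inhibition in the matrix, and Bliss excess as the observed combination effect less EA + EB − EA·EB, with EA and EB the single-agent effects.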

[2] = tested on: CAL-62 (Thyroid Gland Carcinoma); assay: as above
In short: as §1

[3] = tested on: GP5d (Colorectal Carcinoma); assay: as above
In short: as §1

[4] = tested on: OVMIU (Ovarian Carcinoma); assay: as above
In short: as §1

[5] = tested on: WM278 (Melanoma); assay: as above
In short: as §1

[6] = tested on: SHP-77 (Small Cell Lung Carcinoma); assay: as above
In short: as §1

[7] = tested on: GB-1 (Glioblastoma); assay: as above
In short: as §1

[8] = tested on: PSN1 (Pancreatic Carcinoma); assay: as above
In short: as §1

[9] = tested on: LK-2 (Squamous Cell Lung Carcinoma); assay: as above
In short: as §1

[10] = tested on: VAL (B-Cell Non-Hodgkin's Lymphoma); assay: as above
In short: as §1

[11] = tested on: MFE-280 (Endometrial Carcinoma); assay: as above
In short: as §1

[12] = tested on: CAL-120 (Breast Carcinoma); assay: as above
In short: as §1

[13] = tested on: OAW-42 (Ovarian Carcinoma); assay: as above
In short: as §1

[14] = tested on: REH (B-Lymphoblastic Leukemia); assay: as above
In short: as §1

[15] = tested on: IST-MES1 (Mesothelioma); assay: as above
In short: as §1

[16] = tested on: SF268 (Low Grade Glioma); assay: as above
In short: as §1

[17] = tested on: NCI-H2342 (Lung Adenocarcinoma); assay: as above
In short: as §1

[18] = tested on: HSC-39 (Gastric Carcinoma); assay: combination Emax (second highest fraction inhibited in the dose matrix, 72 h); higher = more inhibition; extreme values may be limits of the assay
In short: as §1

[19] = tested on: LXF-289 (Lung Adenocarcinoma); assay: as above
In short: as §1

[20] = tested on: RKN (Other Solid Carcinomas); assay: as above
In short: as §1
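For Bliss excess, mean over the matrix in this document: after 72 h of two-drug dosing.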

SMILES	Bliss excess [1]	Bliss excess [2]	Bliss excess [3]	Bliss excess [4]	Bliss excess [5]	Bliss excess [6]	Bliss excess [7]	Bliss excess [8]	Bliss excess [9]	Bliss excess [10]	Bliss excess [11]	Bliss excess [12]	Bliss excess [13]	Bliss excess [14]	Bliss excess [15]	Bliss excess [16]	Bliss excess [17]	combination Emax [18]	combination Emax [19]	combination Emax [20]
COc1nnc2ccc(N3CCC(c4ccc(OCCN5CCN(C)C(=O)[C@H]5C)cc4)CC3)nn12 [AZD5153] + CCN(CCO)CCCOc1ccc2c(Nc3cc(CC(=O)Nc4cccc(F)c4)[nH]n3)ncnc2c1 [AZD2811] (first compound max 1 µM, 7x7, partner max 1 µM)	-0.0677	-0.0497	-0.082	-0.0733	-0.0654	-0.0325	-0.0787	0.0384	-0.282	-0.0945	-0.0343	0.0045	-0.0491	-0.0891	-0.0132	-0.0592	-0.01	0.952	0.82	0.44
COc1nnc2ccc(N3CCC(c4ccc(OCCN5CCN(C)C(=O)[C@H]5C)cc4)CC3)nn12 [AZD5153] + C[C@@H]1COCCN1C2=NC(=NC(=C2)C3(CC3)[S@](=N)(=O)C)C4=C5C=CNC5=NC=C4 [AZD6738] (first compound max 1 µM, 7x7, partner max 10 µM)	-0.0638	-0.0082	-0.0421	-0.0208	0.0507	0.0591	0.0446	0.0171	0.0491	-0.111	-0.0103	0.0309	0.0752	-0.0059	-0.0183	0.0311	0.0133	1	0.862	0.562
COc1nnc2ccc(N3CCC(c4ccc(OCCN5CCN(C)C(=O)[C@H]5C)cc4)CC3)nn12 [AZD5153] + Cc1c2c(nn1C)CSCc1cc(n(C)n1)CSc1cc(c3ccccc3c1)OCCCc1c(C(=O)O)n(C)c3c-2c(Cl)ccc13 [AZD5991] (first compound max 1 µM, 7x7, partner max 1 µM)	0.0472	-0.057	-0.0569	-0.0072	-0.0929	0.0387	-0.0513	-0.0263	0.0184	-0.112	-0.0473	0.0048	0.0444	-0.0621	-0.0031	0.0097	0.0192	1	0.903	0.495
COc1nnc2ccc(N3CCC(c4ccc(OCCN5CCN(C)C(=O)[C@H]5C)cc4)CC3)nn12 [AZD5153] + Cn1cnc2c(F)c(Nc3ccc(Br)cc3Cl)c(C(=O)NOCCO)cc21 [Selumetinib] (first compound max 1 µM, 7x7, partner max 10 µM)	-0.0326	0.0286	-0.0805	-0.0452	-0.0471	-0.134	-0.035	0.0717	0.0918	-0.0157	0.0114	0.0386	0.02	-0.0495	0.0054	-0.0504	0.0267	0.76	0.646	0.577
Cc1c2c(nn1C)CSCc1cc(n(C)n1)CSc1cc(c3ccccc3c1)OCCCc1c(C(=O)O)n(C)c3c-2c(Cl)ccc13 [AZD5991] + C=CCn1c(=O)c2cnc(Nc3ccc(N4CCN(C)CC4)cc3)nc2n1-c1cccc(C(C)(C)O)n1 [AZD1775] (first compound max 1 µM, partner max 1 µM)	-0.0212	-0.0385	-0.0133	0.0145	0.0438	-0.0378	0.0148	-0.0694	-0.0217	-0.114	0.0045	-0.0143	0.0001	-0.112	0.0383	0.0045	-0.0144	1	0.813	0.223
Cc1c2c(nn1C)CSCc1cc(n(C)n1)CSc1cc(c3ccccc3c1)OCCCc1c(C(=O)O)n(C)c3c-2c(Cl)ccc13 [AZD5991] + CC1(C)CCC(CN2CCN(c3ccc(C(=O)NS(=O)(=O)c4ccc(NCC5CCOCC5)c([N+](=O)[O-])c4)c(Oc4cnc5[nH]ccc5c4)c3)CC2)=C(c2ccc(Cl)cc2)C1 [Venetoclax] (first compound max 1 µM, 7x7, partner max 1 µM)	0.0206	-0.0325	-0.0134	-0.0207	-0.0393	0.0977	-0.0257	-0.0873	0.0293	0.0963	-0.0225	-0.0284	0.0028	0.206	-0.0239	-0.0096	-0.0599	1	0.296	0.146
Cc1c2c(nn1C)CSCc1cc(n(C)n1)CSc1cc(c3ccccc3c1)OCCCc1c(C(=O)O)n(C)c3c-2c(Cl)ccc13 [AZD5991] + CCN(CCO)CCCOc1ccc2c(Nc3cc(CC(=O)Nc4cccc(F)c4)[nH]n3)ncnc2c1 [AZD2811] (first compound max 1 µM, 7x7, partner max 1 µM)	0.0869	0.0397	-0.0319	-0.099	0.0657	-0.034	-0.0318	-0.0467	-0.0115	-0.0541	0.053	-0.0077	0.0173	0.0422	-0.002	0.0835	-0.0613	1	0.864	0.185
Cc1c2c(nn1C)CSCc1cc(n(C)n1)CSc1cc(c3ccccc3c1)OCCCc1c(C(=O)O)n(C)c3c-2c(Cl)ccc13 [AZD5991] + Cn1cnc2c(F)c(Nc3ccc(Br)cc3Cl)c(C(=O)NOCCO)cc21 [Selumetinib] (first compound max 1 µM, 7x7, partner max 3 µM)	-0.0271	-0.0174	0.0017	-0.0284	0.0368	0.0623	-0.0299	0.0011	-0.0063	-0.0227	0.0226	-0.0105	0.0218	-0.0302	-0.0466	-0.0199	-0.0673	1	0.398	0.292
NC1(C(=O)N[C@@H](CCO)c2ccc(Cl)cc2)CCN(c2ncnc3[nH]ccc23)CC1 [Capivasertib] + CC(=O)c1c(C)c2cnc(Nc3ccc(N4CCNCC4)cn3)nc2n(C2CCCC2)c1=O [Palbociclib] (first compound max 10 µM, 7x7, partner max 10 µM)	-0.0603	0.0169	-0.018	-0.0168	-0.0217	-0.142	-0.0497	0.0408	0.0401	-0.0051	-0.0624	-0.0221	-0.0305	0.0022	-0.0632	-0.055	0.0214	0.749	0.691	0.182
NC1(C(=O)N[C@@H](CCO)c2ccc(Cl)cc2)CCN(c2ncnc3[nH]ccc23)CC1 [Capivasertib] + CC(C)n1c(=O)n(C)c2cnc3cc(F)c(-c4ccc(OCCCN5CCCCC5)nc4)cc3c21 [AZD1390] (first compound max 10 µM, 7x7, partner max 0.3 µM)	-0.0892	-0.0389	-0.0843	-0.0592	-0.0671	-0.0178	-0.0399	-0.0422	-0.0165	-0.0887	-0.0763	-0.086	-0.0171	-0.135	-0.0553	-0.0398	-0.0212	0.432	0.396	0.365
NC1(C(=O)N[C@@H](CCO)c2ccc(Cl)cc2)CCN(c2ncnc3[nH]ccc23)CC1 [Capivasertib] + CCN(CCO)CCCOc1ccc2c(Nc3cc(CC(=O)Nc4cccc(F)c4)[nH]n3)ncnc2c1 [AZD2811] (first compound max 10 µM, 7x7, partner max 1 µM)	-0.017	0.0437	-0.0899	-0.0385	-0.065	-0.0208	-0.0143	-0.0309	-0.0303	-0.162	-0.0112	0.0165	0.0291	-0.0591	-0.0427	-0.0667	0.0242	0.948	0.679	0.254
NC1(C(=O)N[C@@H](CCO)c2ccc(Cl)cc2)CCN(c2ncnc3[nH]ccc23)CC1 [Capivasertib] + COc1nnc2ccc(N3CCC(c4ccc(OCCN5CCN(C)C(=O)[C@H]5C)cc4)CC3)nn12 [AZD5153] (first compound max 10 µM, 7x7, partner max 1 µM)	-0.0003	-0.0078	0.0292	0.0026	0.0078	-0.0995	0.0557	-0.0448	0.0566	-0.0867	-0.0126	0.101	0.0972	0.0272	-0.0264	0.0881	0.0361	0.916	0.811	0.449
NC1(C(=O)N[C@@H](CCO)c2ccc(Cl)cc2)CCN(c2ncnc3[nH]ccc23)CC1 [Capivasertib] + C[C@@H]1COCCN1C2=NC(=NC(=C2)C3(CC3)[S@](=N)(=O)C)C4=C5C=CNC5=NC=C4 [AZD6738] (first compound max 10 µM, 7x7, partner max 10 µM)	-0.0412	-0.0306	-0.103	-0.0471	-0.0637	-0.0078	-0.054	-0.0084	-0.0189	-0.0735	-0.0742	-0.0283	0.0034	-0.0859	0.0194	-0.0617	-0.0709	1	0.778	0.272
NC1(C(=O)N[C@@H](CCO)c2ccc(Cl)cc2)CCN(c2ncnc3[nH]ccc23)CC1 [Capivasertib] + Cn1cnc2c(F)c(Nc3ccc(Br)cc3Cl)c(C(=O)NOCCO)cc21 [Selumetinib] (first compound max 10 µM, 7x7, partner max 10 µM)	0.032	0.0695	-0.0427	-0.0255	0.0221	-0.0045	0.0042	-0.0255	0.0313	-0.0242	0.0212	0.0219	0.0028	-0.005	0.0018	-0.0651	0.0891	0.852	0.62	0.479
